Data set [1] concerns R11 uptake by bladder cancer cells. Nature of the data set: inhibitor and GAG competition of R11 uptake in bladder cancer cells. The data set is classed as cell-based, human. To be noted: for competition of R11 uptake by GAGs: various concentrations of GAG with 5 μM R11, 30 min. The procedure: FIGS. 10A-C—Determination of primary interaction molecule for R11 uptake in several bladder cancer cells. Human bladder cancer cells were pre-treated with various inhibitors (FIG. 10A: EIPA; FIG. 10B: Toxin B) 2 h and then incubated with 5 μM CPPs for 30 min before harvesting cell for determining cellular uptake. For competition assay, various concentrations of GAG's and 5 μM R9, R11, or R13 were added into cells for 30 min before harvesting cell for determining cellular uptake (FIG. 10C). Relative uptake was determined based on control (=1).
In order to define R11 as a bladder-specific molecular probe, it is critical to unveil the mechanism of R11 uptake. […] Furthermore, they examined a variety of glycosaminoglycans (GAGs) commonly detected in bladder wall (De Klerk, 1985) for their abilities to block the R11 uptake.

The subject of data set [2] is PCa cells (LNCaP, C4-2, LAPC4 and PC3). Nature of the data set: uptake of FITC-tagged CPPs by PCa cells (fluorometer). It counts as cell-based. To be noted: four PCa cells; 30 minutes. As for the experimental part:
Cell culture and peptide incubation. All PCa cell lines (LNCaP, C4-2, LAPC4 and PC3) were maintained as described previously (Zhou et al., 2005). To determine the peptide uptake, 1×10^5 cells per well were plated in a 12-well plate. Next day, the culture medium was replaced with RPMI medium supplemented with 0.5% FBS (Invitrogen, Carlsbad, Calif.) containing different concentrations fluorescence (FITC)-tagged peptides and incubation was carried out at the indicated time. For determining cellular location of peptide, cells were cultured overnight in slide chamber at a density of 25×10^4/cm^2. The FITC tagged peptides were incubated for 30 minutes in the presence of RPMI medium supplemented with 0.5% of FBS prior to fluorescence microscopy.
Fluorescence intensity determination and Fluorescence microscopy.
Screening of the most efficient CPP uptake by prostate cancer (PCa) cell lines. To deliver small peptide into target cells, CPP was employed as a delivery system. Five different CPPs were synthesized including TAT (amino acid 49-57), Penetratin (Antennapedia 43-58) (PENE), KALA peptide, poly-arginine (R11) and poly-lysine (K11). All the CPPs were incorporated with a FITC-labeled glycine at their N-terminal ends. […] To determine the uptake quantitatively, fluorometer was used to measure the intensity of each CPP per cell basis. To rule out the possible artifacts such as CPP only associated with the cell surface and the pH variation from different organelles, cells were trypsinized and washed extensively with PBS, and a buffer with neutral pH was used in this experiment. […] In general, the uptake efficiency of five different CPPs tested can be considered as R11>>KALA≧TAT≧PENE≧K11 among four PCa cells.

Data set [3] concerns LNCaP. The data set is described as follows: cell growth assay (MTT), serum or DHT-induced proliferation. The data set is classed as cell-based. To be noted: 5 μM peptide, 5% FBS or 10 nM DHT, MTT 4 days. The procedure:
(§1) FIGS. 3A-B—Inhibitory effect of R11PPL on serum and androgen-induced cell proliferation of PCa. LNCaP (FIG. 3A) or C4-2 cells (FIG. 3B) were incubated with 5 μM R11PPL, R11AAL or without peptide 3 hours before adding serum or DHT (10 nM) and relative cell number was determined by MTT assay. All the experiments were carried out in quadruplicates and repeated at least twice. Each column represents mean±SD in triplicate.
(§2) Cell growth assay and cell cycle analysis. Cells were plated in 96-well plate at a density of 10^3 per well in T-medium supplemented with 5% charcoal-stripped FBS for overnight. Cells were incubated with or without indicated peptides (5 μM) for 3 hours in the presence of T-medium supplemented with 0.5% charcoal-stripped FBS. Subsequently, cells were replaced with T-medium containing either 5% FBS or 10 nM dihydrotestosterone (DHT). The peptides were changed every 2 days. The cell proliferation was determined 4 days after the initial peptide treatment by using 3-(4,5-dimethylthiazol-2-yl)-2,5-diphenyltetrazolium bromide (MTT) assay (Roche, Indianapolis, Ind.).

In the next data set the test system is C4-2 cells. The data set is described as above. To be noted: 5 μM peptide, 5% FBS or 10 nM DHT, MTT 4 days. The data set is classed as cell-based. The procedure: as §1, §2
Data set [4] relates to MAP kinase (Erk2) activation. The data set is described as follows: Western blot of phosphorylated Erk1/2 in C4-2 cells. It counts as cell-based. The procedure: (§3) FIGS. 4A-B—Mechanism of action of R11PPL in PCa cells. To determine the function of R11PPL (SEQ ID NO:11) on interaction of Grb2 with SOS, the C4-2 cell lysates were collected after treated with EGF (FIG. 4A). The GST fusion protein with SH3 domain of Grb2 was used for the pull-down assay. The same amount of immobilized GST-Grb2 (SH3) protein (IB:αGST) was incubated with equal amount of cell lysate in addition of no peptide, the increasing amount of control R11AAL (SEQ ID NO:10) or R11PPL (SEQ ID NO:11) peptide as indicated. The binding of SOS was analyzed with Western Blot using SOS1 antibody. DOC-2/DAB2 expression plasmid transfection was used as a positive control. To examine the effect of R11PPL on MAP kinase activity (FIG. 4B), C4-2 cells were incubated with 5 μM R11PPL, R11AAL or R11 (SEQ ID NO:6) peptide 3 hours before adding EGF (10 ng/ml) (top panel) or 5% FBS (bottom panel). Cell lysates were subjected to western blot analysis probed with phosphorylated Erk1 and 2 antibody (αpErk1/2) or total Erk2 antibody (αErk2) used as a loading control. Each experiment has been repeated twice; this graph represents the typical result.
Western blot analysis. Cells were plated in 6-well plates (2×10^5 per well) with T medium containing 5% FBS. […] The protein intensity was detected using an enhanced chemiluminescence detection kit (Amersham, Piscataway, N.J.). […]

Data set [5] relates to interaction of Grb2 with SOS. Nature of the data set: in vitro pull down assay, GST-Grb2 (SH3) binding of SOS. To be noted: C4-2 cell lysate after EGF; peptide 10, 30, 100 μM. As for the experimental part: as §3
In vitro pull down assay. […] The increasing concentrations of peptide (10, 30, 100 μM) for R11PPL or R11AAL were also added during the incubation. […]

Another data set concerns C4-2. Particulars: human, 5 μM.
For data set [6], the system named is lung metastasis of T24 bladder cancer. To be noted: mouse, in vivo.
Description: Top right panel, athymic nude mice were chosen based on a similar size of lung metastasis of bladder cancer from BLI were IV injected with 5 nmole FITC-R11 (left) or FITC (right) per gram body weight. Twenty-four hours after injection, whole body imaging (top left panel) or ex vivo imaging (bottom middle and right panel) of lung was carried out with Maestro In-vivo Imaging System (CRI, Inc.). The image shown is one of the representative experiments.
Data set [7] deals with LNCaP. Particulars: human, 5 μM.
Description: The fluorescence-labeled CPPs (TAT, Penetratin (PENE), KALA, R11 & K11) were synthesized and tested in a variety of PCa cells (LNCaP, C4-2, LAPC4 and PC3 cells). […] Different concentrations of each CPP were incubated with cells for 30 minutes prior to cell harvesting. Relative FITC intensity was determined by normalizing fluorescence intensity of each treatment with its cell numbers. […] R11 (5 μM) was incubated with cells at the indicated time. Relative FITC intensity was determined by normalizing fluorescence intensity of each treatment with its cell numbers. […] Cells were pulsed with R11 (5 μM) chased for the indicated time and the percentage of uptake was used time zero (=100%). Each column or data point represents mean±SD in triplicate. […]
Therefore, the dynamics of R11 uptake was evaluated by incubating cells with 5 μM R11 for 5, 10 and 30 minutes. […]
To determine the uptake efficiency of each CPP, different concentrations (0.1, 1, 5 μM) of FITC-tagged peptides were incubated with cells for 30 minutes (or different time for the time course study) then cells were washed twice with PBS and trypsinized. After washing with PBS twice, the total cell number was determined and cells were lysed in Tris Buffer (50 mM Tris-HCl, pH 7.5, 150 mM NaCl, 5 mM EDTA, 1% Triton X100). The fluorescence intensity was examined by fluorometer (excitation 490-500 nm; emission 515-525 nm). […]
For a further data set, the system named is PC3. Particulars: human, 5 μM.
On the set-up of data set [8]: species or system nude mice. Particulars: in vivo. The procedure: FIGS. 9A-C—Comparison of delivery efficiency between different length of polyarginines. (FIG. 9A) In vitro uptake by bladder cancer cell lines 30 min after incubation. Relative uptake was determined by fluorometer and normalized using R11 5 μM (=1) in each cell line. (FIG. 9B) Animal study (n=3; 24 h post injection). The peptides (5 nmole/gram body weight) were administered via intravenous (IV) route. SV: seminal vesicle; CG: coagulation gland. (FIG. 9C) The tissue localization of FITC-R11 in mouse bladder.
Although the cellular uptake mechanism of CPPs is not completely understood, they were not supposed to have cell specificity. Also, the efficiency of CPPs delivery varies among different species and length. For example, Mai et al. (2002) has reported that the 8-mer and 10-mer of polylysine have higher cell permeable efficiency for a broad range of cell types than polyarginine does. However, the inventors observed that polyarginine is more efficiency than polylysine in bladder cancer cells (FIG. 9A). In order to further determine whether R11 is the best polyarginine for bladder cancer cells, the inventors examined the uptake efficiency using different lengths of polyarginine.

Another data set relates to LAPC4. Particulars: human, 5 μM.
A further data set can be described thus: in vitro. To be noted: human.

No end group written: not given here. *: point of attachment. FITC = O=C1OC2(c3ccc(O)cc3Oc3cc(O)ccc32)c2ccc(NC(=S)*)cc21

For the molecule `CCN(c1nc(N)c(C(=O)NC(=N)N)nc1Cl)C(C)C` [EIPA], the “effect of inhibitor on R11 uptake” value in [1] (pre-treated 2 h, then 5 μM CPPs 30 min) is reported as “effectively diminish R11 uptake”.

As to “^FITC-G-RKKRRQRRR (N-terminal FITC-Gly) [TAT, CPP derived from HIV TAT amino acid 49-57, FITC-labeled]”, the “uptake efficiency among five CPPs (rank)” value in [2] was “R11>>KALA≧TAT≧PENE≧K11”.

Consider dextran sulfate, for which the “competition of R11 uptake by GAGs” value in data set [1] was “effectively compete the uptake of R11”.

On to “^FITC-G-KLALKLALKALKAALKLA ({FITC}-GKLALKLALKALKAALKLA) [KALA, KALA peptide, FITC-labeled]”, for which, in [2], the “uptake efficiency among five CPPs (rank)” value is listed as “R11>>KALA≧TAT≧PENE≧K11”.

As to “^FITC-G- RRRRRRRRRRR -GG-FQLRQAALVASRKGE [R11AAL]”, the “serum or DHT-induced cell proliferation” value with LNCaP [3] and in the data set with C4-2 cells was “did not exhibit any effect” each time. The “uptake of R11, R11AAL and R11PPL compared” value in data set [2] was “very similar”.

Turning to protamine sulfate, the “competition of R11 uptake by GAGs” value in [1] is recorded as “effectively compete the uptake of R11”.

Take pentosan sulfate: in data set [1], the “competition of R11 uptake by GAGs” value is recorded as “effectively compete the uptake of R11”.

With “^FITC-G-RRRRRRRRRRR-GGG-FQLRQPPLVPSRKGE ({FITC}-GRRRRRRRRRRRGGGFQLRQPPLVPSRKGE) [R11PPL, FITC-R11 conjugated with PPL (DOC-2/DAB2 PR domain) at C-terminus]”, the “serum-induced activation of Erk2” value in [4] (5 μM peptide 3 hours before 5% FBS) is on record as “suppressed”. In addition, the “EGF induced activation of Erk2” value in data set [4] (5 μM peptide 3 hours before EGF 10 ng/ml) was “could suppress”. In data set [5], the “interaction between Grb2 and SOS” value is recorded as “dose-dependent inhibitory effect”. The “serum or DHT-induced cell proliferation” value in the data set on LNCaP [3] and in the data set on C4-2 cells was “suppressed” in each case. For the same molecule, the “uptake of R11, R11AAL and R11PPL compared” value in data set [2] is “very similar”.

Usually half-life stands for the time needed for the level to fall by half in the phase considered. Low values mean rapid decline, high ones slow decline. As for `N=C(N)NCCC[C@H](NC(=O)[C@H](CCCNC(=N)N)NC(=O)[C@H](CCCNC(=N)N)NC(=O)[C@H](CCCNC(=N)N)NC(=O)[C@H](CCCNC(=N)N)NC(=O)[C@H](CCCNC(=N)N)NC(=O)[C@H](CCCNC(=N)N)NC(=O)[C@H](CCCNC(=N)N)NC(=O)[C@H](CCCNC(=N)N)NC(=O)[C@H](CCCNC(=N)N)NC(=O)[C@H](CCCNC(=N)N)NC(=O)CNC(=S)Nc1ccc2c(c1)C(=O)OC21c2ccc(O)cc2Oc2cc(O)ccc21)C(=O)O` [R11, ^FITC-G-R11], the “half-life of R11” value came out at 24.1 h in the data set with C4-2, 23.4 h in the data set on LNCaP [7], 24.0 h with PC3 and 22.8 h in the data set with LAPC4. The “ex vivo fluorescence signal of lung tumor lesion” value in [6] was “clear fluorescence signal is visualized in the ex vivo tumor lesion”. Moreover, the “tissue localization in mouse bladder (histologic examination)” value in data set [8] was “presence of R11 in both transitional and stromal cell compartments of bladder”. In “in vitro”, this molecule gave a half-life at 5 μM of 23 to 24 h.

B1: DOC-2/DAB2: native protein, expression plasmid transfection used as a positive control in pull-down (protein, UniProt P98082 2-770, looked up)
Disabled homolog 2: SNEVETSATNGQPDQQAAPKAPSKKEKKKGPEKTDEYLLARFKGDGVKYKAKLIGIDDVPDARGDKMSQDSMMKLKGMAAAGRSQGQHKQRIWVNISLSGIKIIDEKTGVIEHEHPVNKISFIARDVTDNRAFGYVCGGEGQHQFFAIKTGQQAEPLVVDLKDLFQVIYNVKKKEEEKKKIEEASKAVENGSEALMILDDQTNKLKSGVDQMDLFGDMSTPPDLNSPTESKDILLVDLNSEIDTNQNSLRENPFLTNGITSCSLPRPTPQASFLPENAFSANLNFFPTPNPDPFRDDPFTQPDQSTPSSFDSLKSPDQKKENSSSSSTPLSNGPLNGDVDYFGQQFDQISNRTGKQEAQAGPWPFSSSQTQPAVRTQNGVSEREQNGFSVKSSPNPFVGSPPKGLSIQNGVKQDLESSVQSSPHDSIAIIPPPQSTKPGRGRRTAKSSANDLLASDIFAPPVSEPSGQASPTGQPTALQPNPLDLFKTSAPAPVGPLVGLGGVTVTLPQAGPWNTASLVFNQSPSMAPGAMMGGQPSGFSQPVIFGTSPAVSGWNQPSPFAASTPPPVPVVWGPSASVAPNAWSTTSPLGNPFQSNIFPAPAVSTQPPSMHSSLLVTPPQPPPRAGPPKDISSDAFTALDPLGDKEIKDVKEMFKDFQLRQPPAVPARKGEQTSSGTLSAFASYFNSKVGIPQENADHDDFDANQLLNKINEPPKPAPRQVSLPVTKSTDNAFENPFFKDSFGSSQASVASSQPVSSEMYRDPFGNPFA
For the molecule B1, the “interaction between Grb2 and SOS” value in [5] is “inhibited”.

The values above are taken from US7919579B2, “Imaging and therapeutic targeting of prostate and bladder tissues” (The Board of Regents of the University of Texas System, priority 2006, dated 2011).
